Source: patent US10208021B2, “Substituted tetrahydroisoquinoline compounds as factor XIa inhibitors” (BRISTOL-MYERS SQUIBB COMPANY, priority 2011, dated 2019)
Counter-ions that a name gives are not always drawn.

Target: purified human Factor XIa (Homo sapiens (Human), UniProt P03951)
Assay: Factor XIa chromogenic substrate (S-2366) inhibition assay
Format: biochemical
In short: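 Ki derived from reaction velocities measured in the presence of inhibitor. Purified protease hydrolysed the chromogenic substrate; rate of absorbance change was followed over 20-180 minutes, depending on the protease.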

[1] = substrate S-2366, activity ranges, Table A

Chain of purified human Factor XIa (P03951 388-625): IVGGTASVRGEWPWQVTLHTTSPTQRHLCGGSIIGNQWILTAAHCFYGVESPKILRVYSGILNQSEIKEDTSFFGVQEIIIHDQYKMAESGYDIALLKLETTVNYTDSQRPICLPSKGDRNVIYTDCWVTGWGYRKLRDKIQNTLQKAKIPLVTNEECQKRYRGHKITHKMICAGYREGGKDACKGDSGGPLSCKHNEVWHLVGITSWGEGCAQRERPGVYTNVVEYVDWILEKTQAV
Chain of purified human Factor XIa (P03951 19-387 partner): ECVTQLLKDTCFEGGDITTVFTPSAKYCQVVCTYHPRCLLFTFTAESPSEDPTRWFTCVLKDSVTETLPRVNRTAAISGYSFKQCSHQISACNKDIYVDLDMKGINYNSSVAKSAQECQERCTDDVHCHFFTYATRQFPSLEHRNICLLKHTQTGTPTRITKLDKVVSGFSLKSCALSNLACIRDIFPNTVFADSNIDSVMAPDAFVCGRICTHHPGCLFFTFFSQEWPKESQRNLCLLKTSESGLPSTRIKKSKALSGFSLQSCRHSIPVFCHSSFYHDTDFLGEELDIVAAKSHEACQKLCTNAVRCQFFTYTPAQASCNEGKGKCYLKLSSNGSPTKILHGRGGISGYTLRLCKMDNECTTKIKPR

SMILES | Ki [1] [nM] | Ki (substrate S-2366, Table 1) [nM]
O=C(O)c1ccc(NC(=O)C2c3cccc(N4CCS(=O)(=O)CC4)c3CCN2C(=O)/C=C/c2c(C(F)(F)F)ccc(Cl)c2F)cc1 (racemic) [Example 225] | < 5 | –
CN(C)C1CCN(c2cccc3c2CCN(C(=O)/C=C/c2c(-n4cnnn4)ccc(Cl)c2F)C3C(=O)Nc2ccc(C(=O)OC(C)(C)C)cc2)CC1 (racemic) [Example 91] | 5 to 10 | –
O=C(O)c1ccc(NC(=O)[C@@H]2c3cccc(N4CCC(C(=O)N5CCOCC5)CC4)c3CCN2C(=O)/C=C/c2c(-n3cnnn3)ccc(Cl)c2F)cc1 [Example 141] | < 5 | –
CN1CCCN(c2cccc3c2CCN(C(=O)C=Cc2c(-n4cnnn4)ccc(Cl)c2F)C3C(=O)Nc2ccc(C(=O)O)cc2)CC1 (centres unmarked) [Example 265] | < 5 | –
O=C(O)c1ccc(NC(=O)C2c3cccc(N4CCC5(CC4)OCCO5)c3CCN2C(=O)/C=C/c2c(-n3cnnn3)ccc(Cl)c2F)cc1 (racemic) [Example 142] | < 5 | –
O=C(Nc1ccc2cn[nH]c2c1)C1c2cccc(N3CCOCC3=O)c2CCN1C(=O)/C=C/c1c(-n2cnnn2)ccc(Cl)c1F (racemic) [Example 47] | < 5 | –
CCOC(=O)c1ccc(NC(=O)C2c3cccc(N4CC5CN(C)CC5C4)c3CCN2C(=O)C=Cc2c(-n3cnnn3)ccc(Cl)c2F)cc1 (centres unmarked) [Example 253] | 5 to 10 | –
CN(C)[C@H]1CCN(c2cccc3c2CCN(C(=O)/C=C/c2c(-n4cnnn4)ccc(Cl)c2F)[C@@H]3C(=O)Nc2ccc(C(=O)O)cc2)C1 [Example 206, 4-((S)-2-((E)-3-(3-Chloro-2-fluoro-6-(1H-tetrazol-1-yl)phenyl)acryloyl)-5-((S)-3-(dimethylamino)pyrrolidin-1-yl)-1,2,3,4-tetrahydroisoquinoline-1-carboxamido)benzoic acid, bis-TFA Salt] | < 5 | –
O=C(O)c1ccc(NC(=O)C2c3cccc(N4CCC(N5CCCC5)CC4)c3CCN2C(=O)/C=C/c2ccccc2F)cc1 (racemic) [Example 181] | 5 to 10 | –
CC(=O)OC1CCN(c2cccc3c2CCN(C(=O)/C=C/c2c(-n4cnnn4)ccc(Cl)c2F)C3C(=O)Nc2ccc(C(=O)O)cc2)CC1 (racemic) [Example 137] | < 5 | –
CNC(=O)N1CCCN(c2cccc3c2CCN(C(=O)/C=C/c2c(-n4cnnn4)ccc(Cl)c2F)C3C(=O)Nc2ccc(C(=O)O)cc2)CC1 (racemic) [Example 259] | < 5 | –
O=C(NC1CCCNC1)C1c2cccc(N3CCC(N4CCCC4)CC3)c2CCN1C(=O)C=Cc1c(-n2cnnn2)ccc(Cl)c1F (mixture of isomers) [Example 237] | – | 4620
O=C(O)c1ccc(NC(=O)[C@H]2c3cccc(N4CCCCC4=O)c3CCN2C(=O)/C=C/c2cc(Cl)c(F)cc2-n2cnnn2)cc1 [compound 41] | – | 5640
CC(=O)N1CCN(c2cccc3c2CC(C)(C)N(C(=O)/C=C/c2c(-n4cnnn4)ccc(Cl)c2F)[C@H]3C(=O)Nc2ccc(C(=O)O)cc2)CC1 [Example 205] | 5 to 10 | –
CN(C)CCN1CCN(c2cccc3c2CCN(C(=O)/C=C/c2c(-n4cnnn4)ccc(Cl)c2F)C3C(=O)Nc2ccc(C(=O)O)cc2)CCC1=O (racemic) [Example 263] | < 5 | –
O=C(O)c1ccc(NC(=O)C2c3cccc(N4CCC5(CCN(Cc6ccccc6)C5=O)CC4)c3CCN2C(=O)/C=C/c2c(-n3cnnn3)ccc(Cl)c2F)cc1 (racemic) [Example 121] | < 5 | –
CC(C)(C)OC(=O)c1ccc(NC(=O)C2c3cccc(N4CCN(C(=O)OC(C)(C)C)CC4=O)c3CCN2C(=O)/C=C/c2c(-n3cnnn3)ccc(Cl)c2F)cc1 (racemic) [Example 55] | 100 to 500 | –
CCOC(=O)c1ccc(NC(=O)C2c3cccc(N4CCC(N5CCCC5)CC4)c3CCN2C(=O)/C=C/c2c(C#N)ccc(Cl)c2F)cc1 (racemic) [Example 165] | 5 to 10 | –
O=C(O)c1ccc(NC(=O)C2c3cccc(N4CCNCC4)c3CCN2C(=O)/C=C/c2cc(Cl)c(F)cc2-n2cnnn2)cc1 (centres unmarked) [Example 65, (E)-4-(2-(3-(5-chloro-4-fluoro-2-(1H-tetrazol-1-yl)phenyl)acryloyl)-5-(piperazin-1-yl)-1,2,3,4-tetrahydroisoquinoline-1-carboxamido)benzoic acid, bis TFA Salt] | 5 to 10 | –
N#Cc1ccc(Cl)c(F)c1C=CC(=O)N1CCc2c(cccc2N2CCC(N3CCCC3)CC2)C1C(=O)Nc1ccc(C(=O)O)cc1 (centres unmarked) [Example 164] | < 5 | –
CCOC(=O)CCNC(=O)N1CCN(c2cccc3c2CCN(C(=O)/C=C/c2cc(Cl)ccc2-n2cnnn2)C3C(=O)Nc2ccc(C(=O)O)cc2)CC1 (centres unmarked) [Example 21] | < 5 | –
O=C(O)c1ccc(NC(=O)[C@@H]2c3cccc(N4CCC(C(=O)N5CCCC5)CC4)c3CCN2C(=O)/C=C/c2c(-n3cnnn3)ccc(Cl)c2F)cc1 [Example 133] | < 5 | –
CCOC(=O)c1ccc(NC(=O)C2c3cccc(N4CCOCC4)c3CCN2C(=O)/C=C/c2c(-n3cnnn3)ccc(Cl)c2F)cc1 (racemic) [Example 63] | – | 34.5
CC(=O)c1ccc(Cl)c(F)c1/C=C/C(=O)N1CCc2c(cccc2N2CCCCC2=O)[C@@H]1C(=O)Nc1ccc(C(=O)O)cc1 [compound 39] | 5 to 10 | –

SMILES | Ki [1] [nM] | Ki (substrate S-2366, Table 1) [nM]
O=C(O)CCNC(=O)C1c2cccc(N3CCC(N4CCCC4)CC3)c2CCN1C(=O)/C=C/c1c(-n2cnnn2)ccc(Cl)c1F (racemic) [Example 231] | 100 to 500 | –
O=C(O)c1ccc(NC(=O)C2c3cccc(N4CCC(N5CCCC5=O)CC4)c3CCN2C(=O)/C=C/c2c(-n3cnnn3)ccc(Cl)c2F)cc1 (racemic) [Example 96] | < 5 | –
O=C(O)c1ccc(NC(=O)C2c3cccc(N4CCC(N5CCCC5)CC4)c3CCN2C(=O)C=Cc2c(C(F)(F)F)ccc(Cl)c2F)cc1 (centres unmarked) [Example 179] | 100 to 500 | –
O=C(O)c1ccc(NC(=O)C2c3cccc(N4CCC(N5CCCCC5=O)CC4)c3CCN2C(=O)/C=C/c2c(-n3cnnn3)ccc(Cl)c2F)cc1 (racemic) [Example 130] | < 5 | –
CN1CCCN(c2cccc3c2CCN(C(=O)/C=C/c2c(-n4cnnn4)ccc(Cl)c2F)C3C(=O)Nc2ccc(C(=O)O)cc2)CC1 (racemic) [Example 262] | < 5 | –
CC(=O)c1ccc(Cl)c(F)c1C=CC(=O)N1CCc2c(cccc2N2CCC(N3CCCC3)CC2)C1C(=O)Nc1ccc(C(=O)OCC(=O)N(C)C)cc1 (centres unmarked) [Example 172] | < 5 | –
Cn1ncc2ccc(NC(=O)C3c4cccc(N5CCC(N6CCCC6)CC5)c4CCN3C(=O)/C=C/c3c(-n4cnnn4)ccc(Cl)c3F)cc21 (racemic) [Example 120] | < 5 | –
CCOC(=O)c1ccc(NC(=O)C2c3cccc(N4CCC(N5CCCC5)CC4)c3CCN2C(=O)C=Cc2c(-n3cnnn3)ccc(Cl)c2F)cc1 (centres unmarked) [Example 93] | 5 to 10 | –
CNC(=O)c1ccc(NC(=O)C2c3cccc(N4CCNCC4)c3CCN2C(=O)/C=C/c2cc(Cl)c(F)cc2-n2cnnn2)cc1 (racemic) [Example 77] | 100 to 500 | –
CN(C)[C@@H]1CCN(c2cccc3c2CCN(C(=O)/C=C/c2c(-n4cnnn4)ccc(Cl)c2F)[C@@H]3C(=O)Nc2ccc(C(=O)O)cc2)C1 [Example 210, 4-((S)-2-((E)-3-(3-Chloro-2-fluoro-6-(1H-tetrazol-1-yl)phenyl)acryloyl)-5-((R)-3-(dimethylamino)pyrrolidin-1-yl)-1,2,3,4-tetrahydroisoquinoline-1-carboxamido)benzoic acid, bis-TFA salt] | < 5 | –
O=C(O)c1ccc(NC(=O)C2c3cccc(N4CCC(N5CCCC5)CC4)c3CCN2C(=O)/C=C/c2c(C(F)(F)F)ccc(Cl)c2F)cc1 (racemic) [Example 176] | < 5 | –
CCOC(=O)c1ccc(NC(=O)C2c3cccc(N4CCC(N5CCCC5=O)CC4)c3CCN2C(=O)C=Cc2c(-n3cnnn3)ccc(Cl)c2F)cc1 (centres unmarked) [Example 125] | – | 1010
O=C(O)c1ccc(NC(=O)C2c3cccc(N4CCC(N5CCCC5)CC4)c3CCN2C(=O)/C=C/c2cccc(Cl)c2)cc1 (racemic) [Example 156] | 5 to 10 | –
O=C(O)c1ccc(NC(=O)C2c3cccc(N4CCC(N5CCCC5)CC4)c3CCN2C(=O)/C=C/c2c(F)ccc(F)c2F)cc1 (racemic) [Example 182] | 5 to 10 | –
CCOC(=O)c1ccc(NC(=O)[C@@H]2c3cccc(N4CCCCC4=O)c3CCN2C(=O)/C=C/c2c(-n3cnnn3)ccc(Cl)c2F)cc1 [compound 45] | 5 to 10 | –
CN(C)[C@@H]1CCN(c2cccc3c2CCN(C(=O)/C=C/c2c(-n4cnnn4)ccc(Cl)c2F)[C@H]3C(=O)Nc2ccc(C(=O)O)cc2)C1 [Example 209, 4-((R)-2-((E)-3-(3-Chloro-2-fluoro-6-(1H-tetrazol-1-yl)phenyl)acryloyl)-5-((R)-3-(dimethylamino)pyrrolidin-1-yl)-1,2,3,4-tetrahydroisoquinoline-1-carboxamido)benzoic acid, bis TFA salt] | < 5 | –
CCOC(=O)c1ccc(NC(=O)C2c3cccc(N4CCOCC4=O)c3CCN2C(=O)/C=C/c2c(-n3cnnn3)ccc(Cl)c2F)cc1 (racemic) [Example 51] | 5 to 10 | –
CN1CCN(c2cccc3c2CCN(C(=O)/C=C/c2c(-n4cnnn4)ccc(Cl)c2F)C3C(=O)Nc2ccc(C(=O)O)cc2)CCC1=O (racemic) [Example 264] | < 5 | –
COC(=O)CNC(=O)c1ccc(NC(=O)C2c3cccc(N4CCNCC4)c3CCN2C(=O)/C=C/c2cc(Cl)c(F)cc2-n2cnnn2)cc1 (racemic) [Example 74] | 100 to 500 | –
CCOC(=O)CCNC(=O)N1CCN(c2cccc3c2CCN(C(=O)/C=C/c2cc(Cl)ccc2-n2cnnn2)C3C(=O)Nc2ccc(NC(=O)OC)cc2)CC1 (centres unmarked) [Example 23] | 5 to 10 | –
CC(C)(C)OC(=O)c1ccc(NC(=O)C2c3cccc(N4CCNCC4)c3CCN2C(=O)/C=C/c2c(-n3cnnn3)ccc(Cl)c2F)cc1 (centres unmarked) [Example 7] | – | 49.7
CCOC(=O)c1ccc(NC(=O)C2c3cccc(N4CCC5(CCN(C)C5=O)CC4)c3CCN2C(=O)C=Cc2c(-n3cnnn3)ccc(Cl)c2F)cc1 (centres unmarked) [Example 110] | 5 to 10 | –
CC(=O)c1ccc(Cl)c(F)c1/C=C/C(=O)N1CCc2c(cccc2N2CCN(C)CC2)C1C(=O)Nc1ccc(C(=O)O)cc1 (centres unmarked) [Example 79, (E)-4-(2-(3-(6-acetyl-3-chloro-2-fluorophenyl)acryloyl)-5-(4-methylpiperazin-1-yl)-1,2,3,4-tetrahydroisoquinoline-1-carboxamido)benzoic acid, bis-TFA Salt] | < 5 | –
